Data taken from patent US20200080053A1, “USE OF PEPTIDE COMPOUNDS FOR PROMOTING SURVIVAL, GROWTH AND CELL DIFFERENTIATION” (Axoltis Pharma, priority 2016, published 2020).
Entries after “also recorded” stand apart in the source; their conditions may differ.

Assays:
Assay type in all cases: cell-based
[1] = tested on: human mesenchymal stem cells (hMSC); experiment: Neural differentiation of hMSCs: immunocytochemical analysis (Nestin, MAP-2); settings: bFGF
Protocol: (§1) To investigate the neural differentiation capacity of the peptides, 25 cm^2 flasks and 12-wells culture plates were coated with sterile aqueous solutions of either NX210 or NS640 at a concentration of 80 μg/cm^2. Coatings were carried out at 37° C. and 5% CO2 over-night prior to cell plating.
(§2) On Day 0 (D0), hMSC were seeded at a concentration of 3,000 cells/cm^2 in pre-coated 25 cm^2 flasks or 12-well culture plates in complete medium and culture was placed at 37° C. in a humid environment and under 5% CO2. After 24h, medium was changed and replaced by different combinations of media containing either: MEMalpha—bFGF 12.5 ng/mL—FBS 2%—P/S 0.1%; MEMalpha—bFGF 12.5 ng/mL—FBS 10%—P/S 0.1%; MEMalpha—FBS 2%—P/S 0.1% (control condition); MEMalpha—FBS 10%—P/S 0.1% (control condition). The cells were placed at 37° C. in a humid environment and under 5% CO2, and medium was changed twice a week. On Day 8, medium was replaced by medium containing ATRA in the place of bFGF and thus was changed with: MEMalpha—ATRA […]—FBS 2%—P/S 0.1%; MEMalpha—ATRA 20 μM—FBS 10%—P/S 0.1%; MEMalpha—FBS 2%—P/S 0.1% (control condition); MEMalpha—FBS 10%—P/S 0.1% (control condition). The cells were placed at 37° C. in a humid environment and under 5% CO2. Medium was changed twice a week. On Day 15 (D15), cells were harvested by trypsinization for mRNA extraction or fixed immunocytochemical analysis.
Assessment of differentiation was performed by gene expression after extraction of mRNA at various time point (DO, D1, D8 and D15), and immunocytochemical analysis performed at the end of the culture period (D15).
Immunocytochemical analyses were carried out on cells fixed in 4% paraformaldehyde and using standard protocols. After blocking with Triton 1×0.1%/BSA 5% during 30 min, cells were incubated with antibodies directed against Nestin (Millipore) or MAP-2 (Sigma) overnight at +4° C. After washing, appropriate FITC or Cyandidine-5 labelled secondary antibody are added. Nuclei were counterstained with Hoescht 33258 (Sigma). Obervations were performed using Leica TCS LSI system.

[2] = tested on: 129S v/J embryonic stem cells (ESCs); experiment: Early differentiation of ESCs on gelatin without LIF and serum, nestin/MAP2 immunocytochemistry
Protocol: 129S v/J embryonic stem cells (ESCs) were seeded at a concentration of 0.7×10^6 cells in 35 mm diameter Petri dishes covered with a gelatin substrate.
The culture medium used was the Glasgow's minimal essential medium (G-MEM) supplemented with N2 supplement.
To enable differentiation of ESCs into neuroepithelial progenitors, the culture medium was deprived of LIF (Leukemia Inhibitory factor) because LIF is a key factor of the self-renewal of ESCs.
The various tests were carried out in absence of serum because serum limits the possibility to specifically orientate the differentiation and it could hide, or at least reduce, the effects of the peptide compound of the invention.
ESCs were grown in the culture medium as defined above with addition of 0.5 mg/ml NX210 (SEQ ID NO: 6) at day 1, 3 and 5.
Then, cultures were fixed with 4% paraformaldehyde after 7 days of culture.
To analyze the differentiation of ESCs into neuroepithelial progenitors and into differentiated neurons, the various cell types were visualized by immunocytochemistry: • using a primary anti-nestin antibody (nestin=intermediate filament protein), specific of neuroepithelial progenitors, and • using a primary anti-MAP2 antibody (MAP2=microtubule associated protein 2), specific of dendrites, and thus specific of differentiated neurons.
The total number of cells was measured by labelling nuclei using bisbenzimide/Hoechst 33342, a fluorescent dye with an affinity for DNA that is commonly used to color nuclei in blue.

[3] = tested on: human mesenchymal stem cells (hMSC); experiment: Neural differentiation of hMSCs: gene expression by real-time PCR
Protocol: as §1
as §2, with “On Day 15 (D15), cells were harvested by trypsinization for mRNA extraction or fixed immunocytochemical analysis.” left out
Total RNA was extracted using RNAeasy total purification kit following instructions of the manufacturer (Qiagen). cDNA were generated using a High-Capacity cDNA Reverse Transcription kit (Applied Biosystems) as described by the manufacturer.
The expression levels of genes (GFAP, Musashi 1, Nestin, Beta3-Tubuline, MAP-2 and GAPDH) were analyzed by real-time PCR using TaqMan gene Expression Master Mix (Applied Biosystems) on the Applied Biosystems 7900 Real time PCR system (Life technologies). Samples were analyzed in triplicates. Data were normalized using the GAPDH gene as an internal control and relative quantification (RQ) of the genes in a sample was determined according to the equation 2^−Δct.

[4] = 2% FBS, with or without peptide coating (FIG. 8)

With “W-S-G-W-S-S-C-S-R-S-C-G (WSGWSSCSRSCG) [NX210]” the “MAP-2 marker expression (immunocytochemistry staining)” value [1, 4] was “stronger staining”, the “Nestine marker expression (immunocytochemistry staining)” value [1, 4] was “stronger staining” and the MAP-2 protein presence ([1]; 10% FBS, peptide coating (FIG. 8)) was “makes possible to observe MAP-2 protein presence”. For the same substance, the “Nestine expression (staining intensity)” value ([1]; 10% FBS, with or without peptide coating, compared to the control condition (FIG. 8)) was “maximized”, the “population of ESCs expressing the nestin protein” value ([2]; 0.5 mg/ml NX210, 7 days of culture on gelatin, compared to culture in the absence of NX210) was “reduced; also recorded: few Nestin+cells” and the “cells expressing the MAP2 protein (differentiated neurons)” value ([2]; 0.5 mg/ml NX210, 7 days of culture, no MAP2 cells in the absence of NX210) was “some cells expressing the MAP2 protein”. The “orientation of ESCs to the neuronal differentiation pathway” value ([2]; 0.5 mg/ml NX210, in terms of kinetics) was “induces a preferential orientation of ESCs to the neuronal differentiation pathway”, the “MAP2+ cells in ESCs (FIG. 2)” value ([2]; after 5 days in the presence of 0.5 mg/ml NX210, compared to control culture) was “only observed in presence of NX210” and the “effect of peptide coating on the increase in Nestin, βIII-Tubulin and MAP-2 gene expression” value ([3]; bFGF then ATRA, 2% FBS, peptide coating 80 μg/cm2) was “does not modify this increase”. The MAP-2 expression ([3]; bFGF then ATRA, 10% FBS, peptide coating, vs ×0.75 without peptide (FIG. 5)) was 1.21 ×, the Nestin expression ([3]; bFGF then ATRA, 10% FBS, peptide coating, vs ×1.2 without peptide (FIG. 5)) was 2 × and the Nestin expression ([3]; patient no 1, day 5, bFGF 10% without ATRA (FIG. 6)) was 2 ×. The MAP-2 expression ([3]; patient no 2, D5, with bFGF (FIG. 7)) was “increased”, the βIII-Tubuline expression ([3]; patient no 2, after 5 days of culture, with bFGF (FIG. 7)) was “maximized” and the Nestin expression ([3]; patient no 2, bFGF 10% without ATRA, with or without coating (FIG. 7)) was 1.95 ×.
